Laboratory results taken from patent publication US8906895B2, “Optically active dibenzylamine derivative, and method for preparing thereof” (Kowa Company, Ltd., priority 2010, dated 2014).
Marks after values point to notes of the source that are not given here.

Columns and labels:
[1] = system: PCSK9 protein; assay: PCSK9 protein amount in HepG2 cells by Western blotting; format: cell-based, human; conditions: 48 hours; for PCSK9 protein amount (Relative value based on value of control taken as 1): 10 μM in culture medium, corrected by β-actin; for PCSK9 protein amount-reducing action in comparison with the control (in words): 10 μM
Protocol: (§1) Influence of a test compound on amount of PCSK9 protein and amount of LDL receptor was studied by adding the test compound to human hepatoma cell strain, HepG2 cells, and measuring amount of PCSK9 protein and amount of LDL receptor (LDLR) by Western blotting after culture for 48 hours.
(§2) Specifically, the HepG2 cells were inoculated on a 6-well plate at a density of 5×10^5 cells/well and cultured overnight, and a test compound dissolved in dimethyl sulfoxide (DMSO), or only DMSO was added to the culture medium in a 1/1000-fold amount. The cells were cultured at 37° C. for 48 hours in a CO2 incubator, the culture was added with 100 μL of the RIPA buffer (50 mM Tris-HCl, pH 7.8, 150 mM NaCl, 1% NP-40, 0.5% sodium deoxycholate, 0.1% SDS, proteinase inhibitor) to disrupt the cells, and proteins were extracted. The extracted proteins were centrifuged at 10000×g, the supernatant was collected, and added with an SDS sample buffer (60 mM Tris-HCl, pH 6.8, 2% SDS, 10% glycerol, 3% mercaptoethanol), and the mixture was subjected to separation by SDS-PAGE (SDS-polyacrylamide gel electrophoresis) using 8% acrylamide gel. After completion of the separation, the proteins were fixed on a nitrocellulose membrane by using iBlot Gel Transfer System (Invitrogen), and blocked by using Block Ace (DS Pharma Biomedical, Catalog No. UK-B 80).
(§3) Detection of the PCSK9 protein, LDLR, and β-actin protein, and measurement of the amounts thereof were performed by labeling the proteins on the membrane using Anti-PCSK9 (Cayman, Catalog No. 1000718), Anti-LDLR (BioVision, Catalog No. 3839-100), and Anti-β-Actin (Sigma, Catalog No. A5316), respectively, as the primary antibody, and Anti-Rabbit IgG-HRP (Sigma, Catalog No. A0545) or Anti-Mouse IgG-HRP (Sigma, Catalog No. A4416) as the secondary antibody, reacting a chemiluminescence reagent (substrate of HRP) with the secondary antibody on the membrane, and then measuring signal intensity using Lumino Image Analyzer LAS-3000 (Fuji Photo Film). The resulting signal intensity wag numprirally evaluated by using image analysis software, Science Lab 2002 Multi Gauge (Fuji Photo Film).
(§4) The resulting measured values of the PCSK9 protein amount and the LDL receptor amount were corrected between those obtained for the sample added with a test compound and the control sample (sample added with only DMSO) using the β-actin protein amounts as index. The corrected PCSK9 protein amount and LDL receptor amount of the test compound addition sample were represented by relative values based on the PCSK9 protein amount and LDL receptor amount of the control sample, respectively, which were taken as 1.

[2] = system: LDL receptor (LDLR); assay: LDL receptor amount in HepG2 cells by Western blotting; format: cell-based, human; conditions: 48 hours; for LDL receptor amount (Relative value based on value of control taken as 1): 10 μM in culture medium, corrected by β-actin; for LDL receptor amount-increasing action in comparison with the control (in words): 10 μM
Protocol: as §1, §2, §3, §4

[3] = system: human HMG-CoA reductase mRNA; assay: HMG-CoA reductase mRNA expression in HepG2 cells by quantitative real-time PCR; format: cell-based; conditions: 10 μM, 8 hours; for HMG-CoA reductase mRNA expression amount (Relative value based on average value of control taken as 1): average ± standard error, 3 samples
Protocol: A test compound was added to the HepG2 cells and the cells were cultured for 8 hours, and then HMG-CoA reductase mRNA expression amount was measured by quantitative real-time PCR.
Specifically, the HepG2 cells were inoculated on a 24-well plate at a density of 2×10^5 cells/well and cultured overnight, and then a test compound dissolved in dimethyl sulfoxide (DMSO), or only DMSO was added to the culture medium in a 1/1000-fold amount. The cells were cultured at 37° C. for 8 hours in a CO2 incubator, and then added with 500 μL of ISOGEN (NIPPON GENE, Catalog No. 31-02501), and the total RNA was extracted. cDNA was synthesized from the extracted total RNA by using High Capacity cDNA Reverse Transcription Kit (Applied Biosystems, Catalog No. 4368813). Expression amount of human HMG-CoA reductase mRNA was measured by quantitative real-time PCR using a set of the following primers: 5′-[…]-3′ (SEQ ID No:1) and 5′-[…]-3′ (SEQ ID No:2) specific to human HMG-CoA reductase, and Fast SYBR Green Master Mix (Applied Biosystems, Catalog No. 4385614). As the measurement apparatus, 7900HT Fast Realtime PCR System was used.
The resulting measured values of the HMG-CoA reductase mRNA expression amount were corrected between those obtained for test compound addition samples (3 samples for each compound) and control samples (sample added with only DMSO, 3 samples) using the β-actin mRNA expression amounts as index. The corrected HMG-CoA reductase mRNA expression amount of the test compound addition sample was represented with a relative value (average±standard error) based on average of the HMG-CoA reductase mRNA expression amounts of the control samples, which was taken as 1.

[4] = system: human PCSK9 mRNA; assay: PCSK9 mRNA expression in HepG2 cells by quantitative real-time PCR; format: cell-based; conditions: 10 μM, 24 hours
Protocol: Specifically, the HepG2 cells were inoculated on a 24-well plate at a density of 2×10^5 cells/well and cultured overnight, and then a test compound dissolved in dimethyl sulfoxide (DMSO), or only DMSO was added to the culture medium in a 1/1000-fold amount. The cells were cultured at 37° C. for 24 hours in a CO2 incubator, and then added with 500 μl of ISOGEN (NIPPON GENE, Catalog No. 31-02501), and the total RNA was extracted. cDNA was synthesized from the extracted total RNA by using High Capacity cDNA Reverse Transcription Kit (Applied Biosystems, Catalog No. 4368813). Expression amount of human PCSK9 mRNA was measured by quantitative real-time PCR using primers specific to human PCSK9 (Kourimate S. et al., J. Biol. Chem., Vol. 283, p9666), and Fast SYBR Green Master Mix (Applied Biosystems, Catalog No. 4385614). As the measurement apparatus, 7900HT Fast Realtime PCR System was used.
The resulting measured values of the PCSK9 mRNA expression amount were corrected between those obtained for test compound addition samples (3 samples) and control samples (sample added with only DMSO, 3 samples) using the β-actin mRNA expression amounts as index. […]

[5] = system: LDL cholesterol in the plasma; assay: Blood LDL cholesterol-reducing action in normal hamsters; format: in vivo, male Syrian hamsters; conditions: for LDL cholesterol-reducing rate: based on control group; for Average LDL cholesterol amount ± standard deviation: plasma 4 hours after final administration, control 50 ± 3.0
Excerpt: (S)-trans-{4-[({2-[({1-[3,5-Bis(trifluoromethyl)phenyl]ethyl}{5-[2-(methylsulfonyl)ethoxy]pyrimidin-2-yl}amino)methyl]-4-(trifluoromethyl)phenyl}(ethyl)amino)methyl]cyclohexyl}acetic acid ((S)-isomer compound (III), optical purify: >99% ee) was suspended in a 0.5% methylcellulose solution, and orally administered repeatedly to normal hamsters (male Syrian hamsters) once a day over 14 days by using a metal probe. Four hours after the final administration, blood was collected, and plasma was obtained. Lipoproteins in the plasma were analyzed by automatic measurement using an HPLC system based on the post-labeling method according to the method described in J. Lipid. Res., 43, p805-814. Specifically, 15 μL of a plasma sample was diluted 10 times with PBS containing 1 mM EDTA, and 80 μl of the diluted sample was injected into a gel filtration column (Superose 6 column (column size: 10×300 mm), GE Healthcare Bioscience) connected to an HPLC system (liquid feeding unit: Shimadzu LC-20A System, Shimadzu). Separation was performed at a flow rate of 0.5 mL/minute and a column temperature of 40° C. by using PBS containing 1 mM EDTA as a running buffer. A cholesterol-measuring reagent (Cholesterol E-Test Wako, Wako Pure Chemical Industries) was mixed with the eluate from the column at a flow rate of 0.25 mL/minute, and the reaction was performed at 40° C. in a reaction coil (0.5 mm×15 m) with feeding the eluate. Cholesterols in the eluate obtained from the reaction coil were detected at a wavelength of 600 nm. Area ratio of the LDL fraction based on the resulting total peak area of cholesterols was calculated, and the total cholesterol amount measured beforehand by using Cholesterol E-Test Wako was multiplied by the area ratio of the LDL fraction to calculate LDL cholesterol amount.
Six normal hamsters were used for each of the control group (0.5% methylcellulose solution administration group) and the test compound administration groups (10 mg/kg body weight and 30 mg/kg body weight of (S)-isomer compound (III) administration groups). The hamsters were divided into the groups beforehand on the basis of the total plasma cholesterol value.
The symbols * and *** in Table 3 means that there were significant differences at a significance level of 5% or less (p<0.05) and a significance level of 0.1% or less (p<0.001), respectively, as determined by a multi-group comparison test (Dunnett's multiple comparison test) performed between the control group and each of the test compound administration groups. Further, the LDL cholesterol amount-reducing rate of the test compound administration group based on the control group was calculated in accordance with the following equation 1 as an LDL cholesterol-reducing rate, and indicated in terms of percentage. LDL cholesterol-reducing rate(%)=[(Average of LDL cholesterol amount of control group−Average of LDL cholesterol amount of compound administration group)/Average of LDL cholesterol amount of control group]×100 (Equation 1)

[6] = 10 mg/kg orally once a day over 14 days
[7] = 30 mg/kg orally once a day over 14 days

SMILES: CCN(C[C@H]1CC[C@H](CC(=O)O)CC1)c1ccc(C(F)(F)F)cc1CN(c1ncc(OCCS(C)(=O)=O)cn1)C(C)c1cc(C(F)(F)F)cc(C(F)(F)F)c1 (mixture of isomers) [Racemate compound (I), trans-{4-[({2-[({1-[3,5-Bis(trifluoromethyl)phenyl]ethyl}{5-[2-(methylsulfonyl)ethoxy]pyrimidin-2-yl}amino)methyl]-4-(trifluoromethyl)phenyl}(ethyl)amino)methyl]cyclohexyl}acetic acid, reference compound]
- PCSK9 protein amount (Relative value based on value of control taken as 1) [1]: 0.68
- PCSK9 protein amount-reducing action in comparison with the control (in words) [1]: almost no such actions
- LDL receptor amount (Relative value based on value of control taken as 1) [2]: 0.73
- LDL receptor amount-increasing action in comparison with the control (in words) [2]: almost no such actions
- Effect on HMG-CoA reductase mRNA expression amount in comparison with the control (in words) [3]: remarkably reduced
- HMG-CoA reductase mRNA expression amount (Relative value based on average value of control taken as 1) [3]: 0.37 ± 0.02

SMILES: CCN(C[C@H]1CC[C@H](CC(=O)O)CC1)c1ccc(C(F)(F)F)cc1CN(c1ncc(OCCS(C)(=O)=O)cn1)[C@@H](C)c1cc(C(F)(F)F)cc(C(F)(F)F)c1 [(S)-Isomer compound (III), (S)-trans-{4-[({2-[({1-[3,5-Bis(trifluoromethyl)phenyl]ethyl}{5-[2-(methylsulfonyl)ethoxy]pyrimidin-2-yl}amino)methyl]-4-(trifluoromethyl)phenyl}(ethyl)amino)methyl]cyclohexyl}acetic acid]
- PCSK9 protein amount (Relative value based on value of control taken as 1) [1]: 0.28
- PCSK9 protein amount-reducing action in comparison with the control (in words) [1]: markedly reduced
- LDL receptor amount (Relative value based on value of control taken as 1) [2]: 1.73
- LDL receptor amount-increasing action in comparison with the control (in words) [2]: remarkably increased
- Effect on expression amount of PCSK9 mRNA in comparison with the control (in words) [4]: remarkably reduced
- PCSK9 mRNA expression amount (Relative value based on average value of control taken as 1) ([4]; average ± standard error, 3 samples): 0.18 ± 0.13
- LDL cholesterol-reducing rate [5, 6]: 20.0%
- Average LDL cholesterol amount ± standard deviation [5, 6]: 40 ± 2.6* mg/dl
- LDL cholesterol-reducing rate [5, 7]: 38.0%
- Average LDL cholesterol amount ± standard deviation [5, 7]: 31 ± 2.6*** mg/dl
- Blood LDL cholesterol-reducing action (in words) ([5]; normal hamsters, 10 and 30 mg/kg orally, 14 days): superior blood LDL cholesterol-reducing action

SMILES: CCN(C[C@H]1CC[C@H](CC(=O)O)CC1)c1ccc(C(F)(F)F)cc1CN(c1ncc(OCCSC)cn1)C(C)c1cc(C(F)(F)F)cc(C(F)(F)F)c1 (relative stereo) [trans-{4-[({2-[({1-[3,5-Bis(trifluoromethyl)phenyl]ethyl}{5-[2-(methylthio)ethoxy]pyrimidin-2-yl}amino)methyl]-4-(trifluoromethyl)phenyl}(ethyl)amino)methyl]cyclohexyl}acetic acid]
- Effect on HMG-CoA reductase mRNA expression amount in comparison with the control (in words) [3]: remarkably reduced
- HMG-CoA reductase mRNA expression amount (Relative value based on average value of control taken as 1) [3]: 0.25 ± 0.03

SMILES: CCN(C[C@H]1CC[C@H](CC(=O)O)CC1)c1ccc(C(F)(F)F)cc1CN(c1ncc(OCCS(C)(=O)=O)cn1)[C@H](C)c1cc(C(F)(F)F)cc(C(F)(F)F)c1 [(R)-Isomer compound (II), (R)-trans-{4-[({2-[({1-[3,5-Bis(trifluoromethyl)phenyl]ethyl}{5-[2-(methylsulfonyl)ethoxy]pyrimidin-2-yl}amino)methyl]-4-(trifluoromethyl)phenyl}(ethyl)amino)methyl]cyclohexyl}acetic acid]
- PCSK9 protein amount (Relative value based on value of control taken as 1) [1]: 1.05
- PCSK9 protein amount-reducing action in comparison with the control (in words) [1]: almost no such actions
- LDL receptor amount (Relative value based on value of control taken as 1) [2]: 0.93
- LDL receptor amount-increasing action in comparison with the control (in words) [2]: almost no such actions
